Results published in patent US12606559B2, “JAK inhibitor compounds, methods for synthesizing same and use thereof” (GALDERMA HOLDING SA, priority 2020, dated 2026).
Values joined by “and” are separate entries in the source; they are usually repeats but may differ in a detail not shown here. Equal entries are not always repeated. Where two headings read alike, the source gives them in different places.

Tests used:
[1] = Protein binding analysis (RED), minipig plasma; type: in vitro ADME; details: male, Gottingen, pH 7.4, RED 4 h, read-out: minipig FU
Procedure: (§1) The protein binding was assessed in plasma of Human, male balb-c mice, male Wistar Han rat, male Gottingen minipig by rapid equilibrium dialysis (RED) devices. After the plasma and buffer phosphate 50 mM pH7.4 were equilibrated at 37° C., the compound was added to plasma to reach a final concentration of 5 μM. An aliquot of plasma was withdrawn immediately. Equilibration under mild agitation was continued for 4 h. The plasma and buffer were sampled and samples were quenched with 4 volumes of acetonitrile and centrifuged. Supernatant was quantified in HPLC/MS/MS to calculate the recovery and the percentage of compound dissolved in the buffer (unbound) and bound to plasma proteins.

3T3 murine fibroblasts = experiment: Phototoxicity, neutral red uptake; type: cell-based; details: 3T3 fibroblasts, 7 J/cm2 UVA/UVB
Procedure: Phototoxicity was evaluated in 3T3 murine fibroblasts. Cells were incubated with different concentrations of test compounds. One plate was then exposed to a dose of 7 J/cm2 (UVA/UVB mimicking usual solar exposure) whereas the other plate was kept in the dark. The treatment medium was then replaced with culture medium and after 24 h cell viability was determined by Neutral red uptake. Concentration leading to 50% decrease of viability was calculated in the absence and in the presence of irradiation. The PIF (photo irritation factor) ratio was then calculated: […]).

SF logD = type: physicochemical
[2] = Protein binding analysis (RED), mouse plasma; type: in vitro ADME, male balb-c mice; details: 5 μM, RED 4 h
Procedure: as §1

[3] = Protein binding analysis (RED), human plasma; type: in vitro ADME; details: 5 μM, RED 4 h
Procedure: as §1

Chrom logD pH 7.4 = type: physicochemical
[4] = molecular target: T1, hERG (Human Ether-a-go-go Related Gene) channel in CHO-K1 cells (Homo sapiens, UniProt Q12809); experiment: In vitro hERG channel, whole cell patch clamp; type: cell-based; details: up to 30 μM
T1 construct: expressed in transfected cells; host or cells: CHO-K1
Procedure: Blockade of the delayed rectifier potassium current (IKr) encoded by hERG gene (human ether a go go-related gene) can lead to QT interval prolongation and is therefore investigated as part of the cardiac risk assessment. This channel is critical for the repolarisation of the cardiac membrane. The effect of the compounds on IKr was assessed by whole cell patch clamp in stably transfected CHO-K1 cells expressing hERG (Human Ether-a-go-go Related Gene) channel following superfusion at different concentrations up to 30 μM.

IL6 signalling in hWB = experiment: hWB assay, IL6; type: cell-based, human; details: human whole blood; read-out: hWB assay: IC50 IL6
[5] = system: IL-6 induced Phospho-STAT3 (Tyr705) in TF-1 cells; experiment: In vitro cellular pSTAT3 assay, IL-6 stimulated TF-1 cells; type: cell-based; details: Homo sapiens
panel of 403 kinases = experiment: Kinase selectivity scores S35 / S1 @ 10 μM (403 kinases); type: binding
[6] = Thermodynamic solubility PG_H2O pH 6 2/8; type: physicochemical; details: PG/H2O 2/8, pH 6
[7] = system: Salmonella typhimurium TA98 and TA100; experiment: Mini Ames assay (TA98 and TA100); type: cell-based; details: for AMES: TA98 and TA100, with and without S9; for increase in the mean number of revertants: TA98 and TA 100 with or without metabolic activation
Source text: The Ames test in micro-method (in 6-well plates=mini Ames) follows the general principles of the standard Ames's technique. The Ames test used strains of bacteria Salmonella typhimurium that carry mutations in the genes involved in histidine synthesis. These strains are auxotrophic mutants, they require histidine for growth but cannot produce it. The assay was used to observe the ability of the test item to induce reverse mutations allowing the bacteria to grow in a histidine-free medium. The number of bacteria that revert and acquire the wild-type ability to grow in the absence of histidine can be estimated by counting the colonies that develop upon incubation. The use of different strains allows the identification of different mechanisms of gene mutation (TA98 for detection of frameshift mutations and TA100 for detection of base pair substitutions).
In a number of cases, the test item itself is not directly mutagenic but its metabolic derivatives are.
A toxicity assessment was performed on complete nutriment agar plate (with histidine) to define the highest concentration to be used in the genotoxicity assay. Solutions were prepared in 100% DMSO. The first concentration analyzed in the well (6-well plate) was 500 μg per plate followed by 7 serial dilutions (2 times factor of dilution). Each concentration was tested in triplicate on each strain and for each condition of treatment. The viability of the positive and negative controls was analyzed for each strain, in the presence or absence of metabolic activation system, and were compared with historical data to validate the study. If no bacterial toxicity occurred, the highest concentration tested for genotoxicity was […]. If toxicity occurred, a viability above than 70% defined the highest concentration tested.
The genotoxicity assessment was performed on minimal agar plate (without histidine) following the same dilution procedure as for the cytotoxicity assessment. DMSO and phosphate buffer controls were used as negative controls. 2-Nitrofluorene (2NF), 2-Aminoanthracene (2AA) and 4-Nitro-1.2 phenylenediamine (DANB) were selected as positive controls.
Test items, positive and negative controls were incubated with the 2 bacterial strains. After 48 h incubation at 37° C. with and without metabolic activation (S9), the prototrophic mutant colonies that had grown on the plates were counted. The results were expressed as the mean number of revertants for each condition tested (3 replicates each) and for each concentration of the test item and controls. Induction ration, corresponding to the ratio of revertants in presence of test item versus spontaneous revertant, was determined for each concentration.

CYP2D6 = molecular target: T2, CYP2D6 (Homo sapiens, UniProt P10635); experiment: CYP2D6 inhibition in human liver microsomes; type: in vitro ADME; details: dextromethorphan
T2 construct: assessed in Human pooled liver microsomes of mixed gender; from tissue; host or cells: human pooled liver microsomes
Procedure: After 5 min at 37° C. incubations were started with NADPH and prolonged for 10 min. The test compound was tested up to 30 μM keeping the final concentration of organic solvent was below 0.5%. The final concentration of microsomes was 0.1 mg/ml to ensure linearity during the time of the incubation. The reaction was quenched by adding 3 volume of acetonitrile. After centrifugation the supernatant was analyzed by HPLC/MS/MS for the formation of des-methyldextromethorphane selectively produced by CYP2D6 and 1′hydroxymidazolam or 6β-hydroxytestosterone, selectively produced by CYP3A. IC50 was calculated with Graphpad Prism v.7 comparing the amount of metabolite produced in presence of the test compound with that produced in absence of test item.

[8] = system: 44 targets (binding and enzyme/uptake assays); experiment: CEREP Safety Screen-44
Procedure: An in vitro pharmacology assay was conducted to assess the capability of the compounds to interact with different pharmacological targets when tested at 10 μM in different binding and enzyme/uptake assays. The included targets are indicative of potential effects in major organs and drug-drug interactions.
Compound binding was calculated as a % inhibition of the binding of a radioactively labelled ligand specific for each target. […] […].

[9] = TF-1, cellular assay IL6, read-out: Free IC50
[10] = TF-1 cells, IL-6 100 ng/ml, pSTAT3, read-out: Cellular Assay: IC50 IL6

T1 sequence (Q12809 whole entry): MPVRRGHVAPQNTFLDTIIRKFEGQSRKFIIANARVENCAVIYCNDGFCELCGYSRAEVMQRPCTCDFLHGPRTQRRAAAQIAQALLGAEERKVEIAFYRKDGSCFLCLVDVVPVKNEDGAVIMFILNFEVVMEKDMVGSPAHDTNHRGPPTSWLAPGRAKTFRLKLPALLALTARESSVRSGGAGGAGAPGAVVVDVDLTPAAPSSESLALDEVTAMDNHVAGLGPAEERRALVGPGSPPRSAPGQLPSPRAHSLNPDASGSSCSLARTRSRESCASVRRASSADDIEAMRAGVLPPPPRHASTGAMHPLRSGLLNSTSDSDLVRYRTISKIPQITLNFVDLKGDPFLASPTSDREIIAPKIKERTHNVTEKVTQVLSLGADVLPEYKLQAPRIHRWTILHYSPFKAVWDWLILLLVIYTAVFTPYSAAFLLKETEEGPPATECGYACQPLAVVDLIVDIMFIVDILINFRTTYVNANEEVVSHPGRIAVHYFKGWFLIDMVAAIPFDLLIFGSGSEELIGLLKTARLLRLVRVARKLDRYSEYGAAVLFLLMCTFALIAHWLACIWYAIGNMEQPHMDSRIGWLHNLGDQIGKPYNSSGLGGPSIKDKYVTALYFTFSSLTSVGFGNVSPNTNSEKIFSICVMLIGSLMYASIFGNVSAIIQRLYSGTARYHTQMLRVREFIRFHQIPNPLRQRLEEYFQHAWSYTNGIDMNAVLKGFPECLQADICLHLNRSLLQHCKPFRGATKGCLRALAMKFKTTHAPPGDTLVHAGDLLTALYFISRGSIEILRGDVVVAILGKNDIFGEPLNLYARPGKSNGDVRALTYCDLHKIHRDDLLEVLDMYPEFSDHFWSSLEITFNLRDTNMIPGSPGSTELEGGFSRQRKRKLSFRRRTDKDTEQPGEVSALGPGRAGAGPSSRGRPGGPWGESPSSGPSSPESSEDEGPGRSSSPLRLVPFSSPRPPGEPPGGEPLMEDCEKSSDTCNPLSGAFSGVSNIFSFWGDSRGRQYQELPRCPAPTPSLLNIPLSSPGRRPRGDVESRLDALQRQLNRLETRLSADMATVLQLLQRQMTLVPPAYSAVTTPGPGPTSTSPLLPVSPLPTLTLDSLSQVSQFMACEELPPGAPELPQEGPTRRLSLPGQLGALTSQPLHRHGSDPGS
T2 sequence (P10635 whole entry): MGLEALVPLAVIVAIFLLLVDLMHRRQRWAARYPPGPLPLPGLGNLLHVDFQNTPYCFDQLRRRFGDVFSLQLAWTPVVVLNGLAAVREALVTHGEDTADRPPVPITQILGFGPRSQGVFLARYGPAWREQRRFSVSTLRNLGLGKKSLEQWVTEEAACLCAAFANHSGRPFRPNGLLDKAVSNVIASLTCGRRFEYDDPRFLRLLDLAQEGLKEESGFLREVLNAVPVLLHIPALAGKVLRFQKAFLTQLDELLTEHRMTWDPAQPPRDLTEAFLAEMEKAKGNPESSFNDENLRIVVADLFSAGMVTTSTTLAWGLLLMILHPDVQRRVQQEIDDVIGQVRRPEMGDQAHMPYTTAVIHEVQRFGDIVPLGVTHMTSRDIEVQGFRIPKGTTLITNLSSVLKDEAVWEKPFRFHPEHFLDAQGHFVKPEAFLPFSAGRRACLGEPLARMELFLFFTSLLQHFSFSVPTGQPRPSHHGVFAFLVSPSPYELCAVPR

SMILES | fraction unbound at 4 h, 5 μM [1] | Phototox (3T3 murine fibroblasts) | logD (SF logD) | mFU [2] [%] | hFU [3] [%] | chromatographic logD (Chrom logD pH 7.4) | IC50 [4] [µM] | IC50 (IL6 signalling in hWB) [µM] | IC50 [5, 9] [nM] | IC50 [5, 10] [nM] | Selectivity @ 10 μM: number of kinases out of 403 (panel of 403 kinases) | Thermodynamic sol PG_H2O pH 6 2/8 [6] | AMES [7] | increase in the mean number of revertants [7] | IC50 (CYP2D6) [µM] | Safety panel (Cerep): 44 targets % inh @ 10 microM, Nb of targets > 50% inh ([8]; 10 microM) | Safety panel (Cerep): 44 targets % inh @ 10 microM, Nb of targets > 50% inh ([8]; 10 μM)
CC1(C)CCN(C(=O)C[C@H]2C[C@@H](Nc3c(C#N)cnc4[nH]ccc34)C2)CC1 [Compound A, 4-(((cis)-3-(2-(4,4-dimethylpiperidin-1-yl)-2-oxoethyl)cyclobutyl)amino)-1H-pyrrolo[2,3-b]pyridine-5-carbonitrile] | 0.1 | Neg/Neg | 3.7 | 5.2 | 4.4 | 2.7 | > 30 | 1.3 | 367 | 11 | 24/403 | 454 microM and 0.17 mg/mL | Neg/Neg | did not induce a biologically significant increase | 25 | 1/44 | 
CC1CCN(C(=O)C[C@H]2C[C@@H](Nc3c(C#N)cnc4[nH]ccc34)C2)CC1 [Compound B, 4-(((cis)-3-(2-(4-Methylpiperidin-1-yl)-2-oxoethyl)cyclobutyl)amino)-1H-pyrrolo[2,3-b]pyridine-5-carbonitrile] | 0.083 | Neg/Neg | 3.1 | 5.1 | 5.6 | 2.2 | > 30 | 6.9 | 275 | 11 | 19/403 | 223 microM and 0.08 mg/mL | Neg/Neg | did not induce a biologically significant increase | 25 |  | 0/44
